Laboratory results from ChEMBL document CHEMBL5096202, “Carbon-silicon switch led to the discovery of novel synthetic cannabinoids with therapeutic effects in a mouse model of multiple sclerosis” (Eur J Med Chem, 2021).
pEC50, pKi: −log10 of the molar value. Active and inactive are the calls of the source. The rule behind the calls is not given here.

Columns and labels:
Cannabinoid receptor 1 [1] = molecular target: T1, Cannabinoid receptor 1 (Homo sapiens, UniProt P21554); assay: Displacement of [3H]-CP55940 from recombinant human CB1 receptor expressed in CHO cells assessed as inhibition constant incubated for 120 mins by radioligand binding assay; assay type: cell-based
Cannabinoid receptor 2 [2] = molecular target: T2, Cannabinoid receptor 2 (Homo sapiens, UniProt P34972); assay: Displacement of [3H]-CP55940 from recombinant human CB2 receptor expressed in CHO cells assessed as inhibition constant incubated for 120 mins by radioligand binding assay; assay type: cell-based
Cannabinoid receptor 1 [3] = molecular target: T1, Cannabinoid receptor 1; assay: Agonist activity at recombinant human CB1 receptor expressed in CHO cells assessed as inhibition of forskolin-induced cAMP accumulation preincubated for 15 mins followed by forskolin stimulation and measured after 15 mins by HTRF assay; assay type: functional, cell-based
Cannabinoid receptor 2 [4] = molecular target: T2, Cannabinoid receptor 2; assay: Agonist activity at recombinant human CB2 receptor expressed in CHO cells assessed as inhibition of forskolin-induced cAMP accumulation preincubated for 15 mins followed by forskolin stimulation and measured after 15 mins by HTRF assay; assay type: functional, cell-based
Cannabinoid receptor 1 [5] = molecular target: T1, Cannabinoid receptor 1; assay: Agonist activity at recombinant human CB1 receptor expressed in CHO cells assessed as inhibition of forskolin-induced cAMP accumulation by measuring maximum efficacy preincubated for 15 mins followed by forskolin stimulation and measured after 15 mins by HTRF assay relative to control; assay type: functional, cell-based; conditions: filed as agonist, time 30.0 min
Cannabinoid receptor 2 [6] = molecular target: T2, Cannabinoid receptor 2; assay: Agonist activity at recombinant human CB2 receptor expressed in CHO cells assessed as inhibition of forskolin-induced cAMP accumulation by measuring maximum efficacy preincubated for 15 mins followed by forskolin stimulation and measured after 15 mins by HTRF assay relative to control; assay type: functional, cell-based; conditions: filed as agonist, time 30.0 min
[7] = Metabolic stability in human liver microsomes assessed as half life; assay type: ADME, Microsome
[8] = Metabolic stability in rat liver microsomes assessed as half life; assay type: ADME, Microsome
[9] = Metabolic stability in mouse liver microsomes assessed as half life; assay type: ADME, Microsome
[10] = Metabolic stability in human liver microsomes assessed as intrinsic clearance; assay type: ADME, Microsome; conditions: read-out: CLH
[11] = Metabolic stability in rat liver microsomes assessed as intrinsic clearance; assay type: ADME, Microsome; conditions: read-out: CLH
[12] = Metabolic stability in mouse liver microsomes assessed as intrinsic clearance; assay type: ADME, Microsome; conditions: read-out: CLH
[13] = Half life in C57BL/6 mouse at 10 mg/kg, ip measured upto 24 hrs by LC-MS/MS analysis; assay type: ADME, organism-based; conditions: in vivo
[14] = Tmax in C57BL/6 mouse at 10 mg/kg, ip measured upto 24 hrs by LC-MS/MS analysis; assay type: ADME, organism-based; conditions: in vivo
[15] = Cmax in C57BL/6 mouse at 10 mg/kg, ip measured upto 24 hrs by LC-MS/MS analysis; assay type: ADME, organism-based; design: dose 10 mg/kg, time < 24 hrs, route ip; conditions: in vivo
[16] = AUClast in C57BL/6 mouse at 10 mg/kg, ip measured upto 24 hrs by LC-MS/MS analysis; assay type: ADME, organism-based; design: time < 24 hrs, dose 10 mg/kg, route ip; conditions: in vivo
[17] = AUCinfinity in C57BL/6 mouse at 10 mg/kg, ip measured upto 24 hrs by LC/MS-MS analysis; assay type: ADME, organism-based; design: dose 10 mg/kg, time < 24 hrs, route ip; conditions: in vivo
Mus musculus [18] = assay: Antiinflammatory activity in MOG (35 to 55 residues)/pertussis toxin-induced experimental autoimmune encephalomyelitis C57BL/6 mouse model assessed as reduction in clinical score administered intraperitoneally starting from day 3 to day 28; assay type: functional, organism-based; conditions: route ip, time 25.0 day, DDE = dose-dependent effect
[19] = Toxicity in MOG (35 to 55 residues)/pertussis toxin-induced experimental autoimmune encephalomyelitis C57BL/6 mouse model assessed as body weight loss at 10 to 30 mg/kg, ip administered starting from day 3 to day 28; assay type: organism-based; conditions: in vivo, 600 h, dose 10-30 mg/kg, time 25 day
[20] = Toxicity in MOG (35 to 55 residues)/pertussis toxin-induced experimental autoimmune encephalomyelitis C57BL/6 mouse model assessed as motor defects at 30 mg/kg, ip administered once daily starting from day 3 to day 28; assay type: organism-based; conditions: in vivo, 600 h, time 25 day
[21] = Toxicity in MOG (35 to 55 residues)/pertussis toxin-induced experimental autoimmune encephalomyelitis C57BL/6 mouse model assessed as tolerance at 30 mg/kg, ip administered once daily starting from day 3 to day 28; assay type: organism-based; conditions: in vivo, 600 h, time 25 day
Mus musculus [22] = assay: (§1) Antiinflammatory activity in MOG (35 to 55 residues)/pertussis toxin-induced experimental autoimmune encephalomyelitis C57BL/6 mouse model assessed as reduction of inflammatory cell infiltration in transverse section of lumbar spinal cords at 10 to 30 mg/kg, ip administered starting from day 3 to day 28 by H&E staining based analysis; assay type: functional, organism-based; conditions: dose 10-30 mg/kg, time 25.0 day
Mus musculus [23] = assay: as §1, with “in demyelination” for “of inflammatory cell infiltration”; assay type: functional, organism-based; conditions: dose 10-30 mg/kg, time 25.0 day
Mus musculus [24] = assay: as §1, with “LFB” for “H&E”; assay type: functional, organism-based; conditions: dose 10-30 mg/kg, time 25.0 day
Mus musculus [25] = assay: as §1, with “in demyelination” for “of inflammatory cell infiltration”, “LFB” for “H&E”; assay type: functional, organism-based; conditions: dose 10-30 mg/kg, time 25.0 day
Mus musculus [26] = assay: Antiinflammatory activity in MOG (35 to 55 residues)/pertussis toxin-induced experimental autoimmune encephalomyelitis C57BL/6 mouse model assessed as reduction in infarcted brain proportion at 10 to 30 mg/kg, ip administered starting from day 3 to day 28 by TTC staining based analysis relative to control; assay type: functional; design: scale not given: the % may be the effect or the level left; conditions: dose 10-30 mg/kg, time 25 day
[27] = Toxicity in MOG (35 to 55 residues)/pertussis toxin-induced experimental autoimmune encephalomyelitis C57BL/6 mouse model assessed as side effects at 10 to 30 mg/kg, ip administered once daily starting from day 3 to day 28; assay type: organism-based; conditions: in vivo, 600 h, dose 10-30 mg/kg, time 25 day

T1 sequence (P21554 whole entry): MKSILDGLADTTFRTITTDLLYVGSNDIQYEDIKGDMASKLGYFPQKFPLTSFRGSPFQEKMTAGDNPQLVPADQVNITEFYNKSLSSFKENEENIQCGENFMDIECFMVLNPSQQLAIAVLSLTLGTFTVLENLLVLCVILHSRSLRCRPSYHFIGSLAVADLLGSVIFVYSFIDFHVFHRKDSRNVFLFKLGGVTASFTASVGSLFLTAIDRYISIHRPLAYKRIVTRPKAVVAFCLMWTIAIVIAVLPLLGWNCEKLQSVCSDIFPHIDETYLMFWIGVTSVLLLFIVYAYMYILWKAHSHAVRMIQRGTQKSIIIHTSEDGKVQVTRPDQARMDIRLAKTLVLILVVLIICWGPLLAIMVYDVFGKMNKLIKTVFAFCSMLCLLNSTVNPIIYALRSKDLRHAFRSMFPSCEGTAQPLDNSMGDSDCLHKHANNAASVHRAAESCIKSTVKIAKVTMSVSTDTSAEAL
T2 sequence (P34972 whole entry): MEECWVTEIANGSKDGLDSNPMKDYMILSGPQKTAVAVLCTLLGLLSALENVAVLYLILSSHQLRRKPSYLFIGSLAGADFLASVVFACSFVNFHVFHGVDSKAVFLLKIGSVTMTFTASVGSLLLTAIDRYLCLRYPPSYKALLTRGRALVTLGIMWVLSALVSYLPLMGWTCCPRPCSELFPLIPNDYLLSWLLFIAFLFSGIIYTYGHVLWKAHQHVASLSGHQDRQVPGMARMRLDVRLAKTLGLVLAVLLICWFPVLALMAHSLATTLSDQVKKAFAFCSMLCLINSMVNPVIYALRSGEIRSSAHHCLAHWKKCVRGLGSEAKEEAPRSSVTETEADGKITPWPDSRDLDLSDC

Work on CCCCCC[Si](C)(C)c1cc(O)c2c(c1)OC(C)(C)[C@@H]1CC=C(CO)C[C@@H]21 yielded a pKi (Cannabinoid receptor 1 [1]) of 9.37, a pKi (Cannabinoid receptor 2 [2]) of 9.01 and a pEC50 (Cannabinoid receptor 1 [3]) of 8.18. It also gave a pEC50 (Cannabinoid receptor 2 [4]) of 7.21 and an Emax (Cannabinoid receptor 1 [5]) of 105%.
CCCC[Si](C)(C)c1cc(O)c(C2CCCCC2)c(O)c1 gave an Emax (Cannabinoid receptor 2 [6]) of 95.2%, a pKi (Cannabinoid receptor 1 [1]) of 6.62 and a pKi (Cannabinoid receptor 2 [2]) of 7.50. For the same compound, the pEC50 (Cannabinoid receptor 2 [4]) was 7.60.
With CCCC[Si](C)(C)c1cc(O)c(C2CCCCCC2)c(OC)c1 the Emax (Cannabinoid receptor 2 [6]) was 93.3%, the pKi (Cannabinoid receptor 2 [2]) was 6.21 and the pEC50 (Cannabinoid receptor 2 [4]) was 6.32.
CCCCCC[Si](C)(C)c1cc(O)c([C@H]2C=C(CO)[C@H]3C[C@@H]2C3(C)C)c(O)c1 gave an Emax (Cannabinoid receptor 2 [6]) of 94.1%, a pKi (Cannabinoid receptor 1 [1]) of 7.84 and a pKi (Cannabinoid receptor 2 [2]) of 7.94. The pEC50 (Cannabinoid receptor 1 [3]) was 6.61, the pEC50 (Cannabinoid receptor 2 [4]) was 7.20 and the Emax (Cannabinoid receptor 1 [5]) was 102%.
With CCCCCC[Si](C)(C)c1cc(O)c(C2CCCCCC2)c(O)c1 the Emax (Cannabinoid receptor 2 [6]) was 92%, the pKi (Cannabinoid receptor 1 [1]) was 7.75 and the pKi (Cannabinoid receptor 2 [2]) was 8.19. The pEC50 (Cannabinoid receptor 1 [3]) was 6.89, the pEC50 (Cannabinoid receptor 2 [4]) was 6.78 and the Emax (Cannabinoid receptor 1 [5]) was 98%.
For CCCC[Si](C)(C)c1cc(O)c(C2CCCC2)c(O)c1, the Emax (Cannabinoid receptor 2 [6]) was 102%, the pKi (Cannabinoid receptor 1 [1]) was 6.33 and the pKi (Cannabinoid receptor 2 [2]) was 6.43. For the same compound, the pEC50 (Cannabinoid receptor 2 [4]) was 7.27.
With CCCC[Si](C)(C)c1cc(O)c(C2CCCCC2)c(OC)c1 the Emax (Cannabinoid receptor 2 [6]) was 90.4%, the pKi (Cannabinoid receptor 1 [1]) was 6.17 and the pKi (Cannabinoid receptor 2 [2]) was 6.40. The pEC50 (Cannabinoid receptor 2 [4]) was 6.15.
In the case of CCCC[Si](C)(C)c1cc(O)c(C2CCCCCC2)c(O)c1, the Emax (Cannabinoid receptor 2 [6]) was 93.4%, the pKi (Cannabinoid receptor 1 [1]) was 6.85 and the pKi (Cannabinoid receptor 2 [2]) was 7.20. It also gave a pEC50 (Cannabinoid receptor 1 [3]) of 6.08, a pEC50 (Cannabinoid receptor 2 [4]) of 7.07 and an Emax (Cannabinoid receptor 1 [5]) of 65%.
Compound CCCC[Si](C)(C)c1cc(O)c2c(c1)OC(C)(C)[C@@H]1CCC(C)=C[C@@H]21 has an Emax (Cannabinoid receptor 2 [6]) of 95.4%, a pKi (Cannabinoid receptor 1 [1]) of 8.63 and a pKi (Cannabinoid receptor 2 [2]) of 8.83. It also gave a pEC50 (Cannabinoid receptor 1 [3]) of 7.86, a pEC50 (Cannabinoid receptor 2 [4]) of 7.19 and an Emax (Cannabinoid receptor 1 [5]) of 99.6%.
C=C(C)[C@@H]1CCC(C)=C[C@H]1c1c(O)cc(CCCCC)cc1O [CANNABIDIOL] showed a half-life [7] of 4.46 min, a half-life [8] of 1.44 min and a half-life [9] of 1.11 min. The CLint scaled [10] was 390 mL/min/kg, the CLint scaled [11] was 4900 mL/min/kg and the CLint scaled [12] was 1720 mL/min/kg.
With CCCCCC[Si](C)(C)c1cc(O)c(C2CCCCC2)c(OC)c1 the Emax (Cannabinoid receptor 2 [6]) was 92.7%, the pKi (Cannabinoid receptor 1 [1]) was 6.35 and the pKi (Cannabinoid receptor 2 [2]) was 6.78. The pEC50 (Cannabinoid receptor 1 [3]) was 6.26, the pEC50 (Cannabinoid receptor 2 [4]) was 7.12 and the Emax (Cannabinoid receptor 1 [5]) was 73.9%.
Work on CCCCCC[Si](C)(C)c1cc(OC)c([C@H]2C=C(CO)[C@H]3C[C@@H]2C3(C)C)c(OC)c1 yielded an Emax (Cannabinoid receptor 2 [6]) of 90.6%, a pKi (Cannabinoid receptor 1 [1]) of 5.54 and a pKi (Cannabinoid receptor 2 [2]) of 5.31. The pEC50 (Cannabinoid receptor 2 [4]) was 6.34, the half-life [7] was 49.7 min and the half-life [8] was 58.9 min. The half-life [9] was 31.5 min, the CLint scaled [10] was 35 mL/min/kg and the CLint scaled [11] was 42.1 mL/min/kg. For the same compound, the CLint scaled [12] was 173 mL/min/kg, the half-life [13] was 407 min and the Tmax [14] was 120 min. For the same compound, the Cmax [15] was 2520 ng/mL, the AUC(0-t) at 24 h [16] was 11600 ng·h/mL and the AUC(0-inf) [17] was 12300 ng·h/mL. For the same compound, the Activity (Mus musculus [18]) was “Dde”, the Activity [19] was “Non-Toxic” and the Activity [20] was “Non-Toxic”. The Activity [21] was “Non-Toxic”, the Activity (Mus musculus [22]) was “Active” and the Activity (Mus musculus [23]) was “Active”. For the same compound, the Activity (Mus musculus [24]) was “Active”, the Activity (Mus musculus [25]) was “Active” and the Activity (Mus musculus [26]) was 90%. The Activity [27] was “Non-Toxic”.
Work on CCCC[Si](C)(C)c1cc(O)c2c(c1)OC(C)(C)[C@@H]1CC=C(CO)C[C@@H]21 yielded an Emax (Cannabinoid receptor 2 [6]) of 91.2%, a pKi (Cannabinoid receptor 1 [1]) of 8.64 and a pKi (Cannabinoid receptor 2 [2]) of 9.19. For the same compound, the pEC50 (Cannabinoid receptor 1 [3]) was 7.45, the pEC50 (Cannabinoid receptor 2 [4]) was 5.08 and the Emax (Cannabinoid receptor 1 [5]) was 102%.
